Measured values as given in patent publication US20190110476A1, “NOVEL ISOTHIAZOLAMIDES, PROCESSES FOR THEIR PREPARATION AND THEIR USE AS FUNGICIDES” (priority 2014, published 2019).
Marks after values point to notes of the source that are not given here.

Assay: Measurement of LogP values by HPLC on reversed phase columns (EEC directive 79/831 Annex V.A8)
Type: physicochemical
Settings: not given
Procedure: The abbreviations and numerations of the substituent positions used in the context of the present invention and in the following Tables are explained in detail in the section Examples hereinafter. Also, the LogP values indicated in the following Tables are explained in detail in the section Examples hereinafter. In case LogP values for different diastereoisomers of a specific compound are […], said LogP values are […] by a “+”. […] Measurement of LogP values was performed according to EEC directive 79/831 Annex V.A8 by HPLC (High Performance Liquid Chromatography) on reversed phase columns with the following methods: […] Lambda-max-values were determined using UV-spectra from 200 nm to 400 nm and the peak values of the chromatographic signals
For O=C(NCc1ccccc1F)c1snc(N(S(=O)(=O)c2ccccc2)S(=O)(=O)c2ccccc2)c1Cl [II-012], the “LogP [a]” value was 4.15^[a].
With COc1ccc(CNc2nsc(C(=O)NCc3ccc(C4CC4)cc3)c2C2CC2)cc1 [I-600] the LogP was 3.94[a].
With COc1ccc(CNc2nsc(C(=O)NC3CCC4CCCC43)c2Cl)cc1 (stereo not drawn) [I-1346] the LogP was 4.35[a].
In the case of CC(C)(C)OC(=O)c1snc(N)c1Cl [E-VII-003], the “LogP [a]” value is reported as 2.66^[a].
In the case of COc1ccc(CNc2nsc(C(=O)NC(C)c3ccno3)c2Cl)cc1 (stereo not drawn) [I-1338], the LogP is reported as 2.73[a].
With CC(=O)Nc1nsc(C(=O)N[C@@H](C)C2CCCCC2)c1Cl [I-097] the LogP was 2.51[a].
In the case of COc1ccc(CNc2nsc(C(=O)NCc3cc(C)ccc3C3(C)CC3)c2Cl)cc1 [I-391], the LogP is reported as 4.92[a].
With CCC1(CNC(=O)c2snc(N)c2Cl)CCCCC1 [I-836] the LogP was 3.20[a].
For O=C(NCCc1ncc(C(F)(F)F)cc1Cl)c1cc(N(Cc2ccccc2)Cc2ccccc2)ns1 [I-904], the LogP was 5.03[a].
In the case of Nc1nsc(C(=O)NC2CC2)c1Cl [I-115], the LogP is reported as 0.84[a].
With Nc1nsc(C(=O)NCc2cccc(F)c2F)c1Cl [I-120] the LogP was 1.91[a].
For O=C(NC1CCCC2CCCCC21)c1snc(Cl)c1Cl (stereo not drawn) [E-II-025], the “LogP [a]” value was 5.27^[a].
In the case of Cc1ccc(CNC(=O)c2snc(N)c2Cl)c(F)c1 [I-164], the LogP is reported as 2.18[a].
In the case of Nc1nsc(C(=O)NCc2ncc(C(F)(F)F)cc2Cl)c1Cl [I-286], the LogP is reported as 2.58[a].
With O=C(NCC1CCCCC1)c1snc(N(Cc2ccccc2)Cc2ccccc2)c1C(F)F [I-394] the LogP was 5.88[a].
For CCc1cccc(C)c1CN(C(=O)c1snc(N)c1Cl)C1CC1 [I-184], the LogP was 3.35[a].
For C[C@H]1CCCC[C@H]1NC(=O)c1snc(N)c1F (relative stereo) [I-1356], the LogP was 2.11[a].
For CS(C)=Nc1nsc(C(=O)NCc2c(F)cc(F)cc2F)c1Cl [II-043], the “LogP [a]” value was 1.42^[a].
With CC1CCC(C(C)C)C(NC(=O)c2snc(Cl)c2Cl)C1 (stereo not drawn) [E-II-024] the “LogP [a]” value was 5.72 and the “LogP [b]” value was 5.64.
For COc1ccc(CNc2nsc(C(=O)N(Cc3cc(C)ccc3C)C3CC3)c2Cl)cc1 [I-876], the LogP was 4.77[a].
For Cc1ccc(C)c(CNC(=O)c2snc(N)c2Cl)c1 [I-326], the LogP was 2.50[a].
With Cc1cc(C)cc(CN(C(=O)c2snc(N)c2Cl)C2CC2)c1 [I-117] the LogP was 3.15[a].
With CCCCCn1cc(CNC(=O)c2snc(NCc3ccc(OC)cc3)c2Cl)c(C)n1 [I-1259] the LogP was 3.57[a].
In the case of COc1ccc(CNc2nsc(C(=O)N(Cc3ccc(Cl)cc3Cl)CC3CC3)c2Cl)cc1 [I-935], the LogP is reported as 5.45[a].
In the case of CCC(=O)Nc1nsc(C(=O)NCc2ccc(F)cc2C)c1Cl [I-817], the LogP is reported as 2.15[a].
In the case of COC(=O)Nc1nsc(C(=O)N[C@@H](C)C2CCCCC2)c1Cl [I-108], the LogP is reported as 2.84[a].
For CS(C)=Nc1nsc(C(=O)NCc2ccc(F)c(F)c2F)c1Cl [II-047], the “LogP [a]” value was 1.57^[a].
For COC(=O)c1snc(N=C(c2ccccc2)c2ccccc2)c1Cl [E-VII-006], the “LogP [a]” value was 4.40^[a].
For Nc1nsc(C(=O)NCC2CCCCC2)c1C#CCO [I-618], the LogP was 1.90[c].
In the case of Nc1nsc(C(=O)N2CCc3ccccc32)c1Cl [II-029], the “LogP [a]” value is reported as 2.08 and the “LogP [b]” value is reported as 2.03.
For O=C(NCc1ccccc1F)c1snc(NCc2ccccc2)c1Cl [I-069], the LogP was 3.56[a].
In the case of O=C(NC1CCCC2CCCCC21)c1snc(Cl)c1Cl (stereo not drawn) [E-II-012], the “LogP [a]” value is reported as 5.34^[a].
With O=C(NCc1cccc(Cl)c1)c1cc(N(Cc2ccccc2)Cc2ccccc2)ns1 [I-283] the LogP was 4.71[a].
With Nc1nsc(C(=O)NCc2ccc(F)cc2C(F)(F)F)c1Cl [I-324] the LogP was 2.61[a].
In the case of CS(C)=Nc1nsc(C(=O)NCc2ccc(F)cc2F)c1F [II-057], the “LogP [a]” value is reported as 1.30^[a].
In the case of O=C(NCC1CCCCC1)c1snc(N=S(Cc2ccccc2)Cc2ccccc2)c1Cl [II-084], the “LogP [a]” value is reported as 4.38^[a].
For Nc1nsc(C(=O)NCC2CCCCC2)c1C(F)F [I-417], the LogP was 2.66[a].
With CCC1(CNC(=O)c2snc(NCc3ccc(OC)cc3)c2Cl)CCCCC1 [I-824] the LogP was 4.89[a].
With N#Cc1ccccc1NC(=O)c1cc(N(Cc2ccccc2)Cc2ccccc2)ns1 [I-905] the LogP was 4.26[a].
In the case of Nc1nsc(C(=O)NCC2CCCCC2)c1C1CC1 [I-359], the LogP is reported as 2.37[a].
With C[C@H](NC(=O)c1snc(N(Cc2ccccc2)Cc2ccccc2)c1C(F)F)C1CCCCC1 [I-263] the LogP was 6.20[a].
In the case of COc1ccc(CNc2nsc(C(=O)NCc3cnn(CC(F)F)c3)c2Cl)cc1 [I-1315], the LogP is reported as 2.58[a].
In the case of COc1ccc(CNc2nsc(C(=O)NCc3cc(F)cc(C(F)(F)F)c3)c2Cl)cc1 [I-1264], the LogP is reported as 4.15[a].
With Nc1nsc(C(=O)NC2(c3ccc(F)cc3)CC2)c1Cl [I-023] the LogP was 2.02[a].
With C[C@@H](NC(=O)c1snc(N)c1Cl)C1CCCCC1 [I-077] the LogP was 2.78[a].
For CS(C)=Nc1nsc(C(=O)NCc2cc(F)c(F)cc2F)c1F [II-072], the “LogP [a]” value was 1.43^[a].
With C[C@H](NC(=O)c1snc(N)c1Cl)C1CCCCC1 [I-003] the LogP was 2.50[a].
For Cc1ccc(C(C)(C)C)c(CNC(=O)c2snc(N)c2Cl)c1 [I-329], the LogP was 3.46[a].
In the case of COc1ccc(CNc2nsc(C(=O)NCC3C(C)CCCC3(C)C)c2Cl)cc1 (stereo not drawn) [I-076], the LogP is reported as 5.48[a].
For Nc1cc(C(=O)NCc2cc(F)cc(F)c2)sn1 [I-303], the LogP was 4.55[a].
In the case of O=C(NCC1CCCOC1)c1snc(Cl)c1Cl (stereo not drawn) [E-II-005], the “LogP [a]” value is reported as 2.18^[a].
In the case of O=C(NCc1ccc(F)cc1F)c1snc(N=S2CCCC2)c1Cl [II-042], the “LogP [a]” value is reported as 1.64^[a].
With COc1ccc(CNc2nsc(C(=O)NCc3ccc(Oc4ccc(F)cc4)cc3)c2Cl)cc1 [I-222] the LogP was 4.44[a].
In the case of COc1ccc(CNc2nsc(C(=O)N(Cc3c(F)cccc3Cl)C3CC3)c2Cl)cc1 [I-933], the LogP is reported as 4.44[a].
With Nc1nsc(C(=O)N(c2ccc(F)cc2)C2CC2)c1Cl [I-917] the LogP was 2.21[a].
For Nc1nsc(C(=O)N(c2cc(F)cc(F)c2)C2CC2)c1Cl [I-959], the LogP was 2.48[a].
In the case of COc1ccc(CNc2nsc(C(=O)Nc3cccc(F)c3)c2Cl)cc1 [I-861], the LogP is reported as 3.85[a].
With CCC(c1ccccc1)N(C(=O)c1snc(NCc2ccc(OC)cc2)c1Cl)C1CC1 (stereo not drawn) [I-875] the LogP was 4.85[a].
With Nc1cc(C(=O)NCc2cc(F)ccc2F)sn1 [I-030] the LogP was 1.49[a].
With CS(C)=Nc1nsc(C(=O)NCC2CCCCC2)c1F [II-053] the “LogP [a]” value was 1.53^[a].
In the case of Nc1cc(C(=O)N(Cc2c(F)cccc2Cl)C2CC2)sn1 [I-909], the LogP is reported as 2.28[a].
For Nc1nsc(C(=O)NCCc2ccccc2)c1-c1ccc(F)cc1 [I-994], the LogP was 2.59[a].
For O=C(NC(Cc1ccccc1)C1CC=CCC1)c1snc(Cl)c1Cl (stereo not drawn) [E-II-034], the “LogP [a]” value was 4.87 and the “LogP [b]” value was 4.75.
In the case of C=CCNc1nsc(C(=O)N[C@@H](C)C2CCCCC2)c1Cl [I-066], the LogP is reported as 4.02[a].
For Cc1cc(C)c(CN(C(=O)c2cc(N)ns2)C2CC2)c(C)c1 [I-977], the LogP was 2.86[a].
In the case of CCC(=O)Nc1nsc(C(=O)NCc2ccc(C#N)cc2)c1Cl [I-811], the LogP is reported as 1.54[a].
In the case of CC1(C)CCCCC1NC(=O)c1snc(N)c1Cl (stereo not drawn) [I-082], the LogP is reported as 2.66[a].
For CN(C)C=Nc1nsc(C(=O)NC2CCCC3CCCCC32)c1Cl (stereo not drawn) [II-038], the “LogP [a]” value was 3.94^[a].
For COc1ccc(CNC(=O)c2snc(N)c2Cl)cc1O [I-1568], the LogP was 1.03[a].
With C[C@H](NC(=O)c1snc(NS(=O)(=O)c2ccccc2)c1Cl)C1CCCCC1 [II-009] the “LogP [a]” value was 3.75^[a].
With Nc1nsc(C(=O)NCc2ccc(Cl)cc2)c1Cl [I-020] the LogP was 2.16[a].
For COc1ccc(CNc2nsc(C(=O)NCc3ccc(OC)cn3)c2Cl)cc1 [I-1318], the LogP was 2.45[a].
In the case of C[C@@H]1CCCC[C@H]1NC(=O)c1snc(N)c1Br (relative stereo) [I-839], the LogP is reported as 2.49[a].
For COc1ccc(CNc2nsc(C(=O)NC3CCC(C(C)(C)C)CC3)c2Cl)cc1 (stereo not drawn) [I-1252], the LogP was 5.51[a].
For Nc1cc(C(=O)NC2CCCCC2)sn1 [I-007], the LogP was 1.49[a].
For CCC(c1cc(Cl)cc(Cl)c1)N(C(=O)c1snc(N)c1Cl)C1CC1 (stereo not drawn) [I-955], the LogP was 4.17[a].
With COc1ccc(CN(Cc2ccc(C)cc2)c2nscc2Cl)cc1 [Z-A-008] the “LogP [a]” value was 5.48^[a].
With Cc1ccc(S(C)=Nc2nsc(C(=O)NCc3ccc(F)c(F)c3F)c2F)cc1 (stereo not drawn) [II-077] the “LogP [a]” value was 2.73^[a].
For Cc1c(N)nsc1C(=O)NCc1ccc(Cl)nc1 [I-110], the LogP was 1.09[a].
In the case of COc1ccc(CNc2nsc(C(=O)NC3CCC4CCCCC4C3)c2Cl)cc1 (stereo not drawn) [I-1216], the LogP is reported as 5.24[a].
For COc1ccc(CNc2nsc(C(=O)NCCc3ccccc3Cl)c2Cl)cc1 [I-877], the LogP was 4.07[a].
With CC(c1ccccc1C(F)(F)F)N(C(=O)c1snc(N)c1Cl)C1CC1 (stereo not drawn) [I-957] the LogP was 3.13[a].
For CCn1nc(C)c(CNC(=O)c2snc(NCc3ccc(OC)cc3)c2Cl)c1C [I-1214], the LogP was 2.57[a].
With O=C(NCC1CCC(C(=O)NC2CC2)CC1)c1snc(Cl)c1Cl (stereo not drawn) [E-II-016] the “LogP [a]” value was 2.21^[a].
For COc1ccc(CNc2nsc(C(=O)NCc3cccnc3OC)c2Cl)cc1 [I-1235], the LogP was 3.13[a].
For COc1ccc(CNc2nsc(C(=O)NC3CCc4ccc(C(C)(C)C)cc4C3)c2Cl)cc1 (stereo not drawn) [I-1308], the LogP was 5.41[a].
With COc1ccc(CNc2nsc(C(=O)N(Cc3cc(Cl)cc(C(F)(F)F)c3)C3CC3)c2Cl)cc1 [I-947] the LogP was 5.11[a].
With Nc1nsc(C(=O)N(Cc2c(F)cccc2Cl)C2CC2)c1Cl [I-210] the LogP was 2.73[a].

Same assay, conditions: HPLC LC-UV, acidic range, 0.1% formic acid in water and acetonitrile as eluent
For O=Cc1c(N(Cc2ccccc2)Cc2ccccc2)nsc1C(=O)O [E-VIII-006, 3-(dibenzylamino)-4-formyl-1,2-thiazole-5-carboxylic acid], the chromatographic logP was 3.21.
With CCOC(=O)c1snc(N(Cc2ccccc2)Cc2ccccc2)c1C1CC1 [E-VII-024, ethyl 4-cyclopropyl-3-(dibenzylamino)isothiazole-5-carboxylate] the chromatographic logP was 5.91.
